Test results taken from patent publication US6479553B1, “Use of certain affinity NMDA antagonists as antidepressants” (AstraZeneca AB, priority 1999, dated 2002).
“Also recorded” adds a separate entry of the source. Marks after values point to notes of the source that are not given here.

Legend:
Format in all cases: in vivo
male NMRI mice [1] = experiment: Forced swim test in mice; settings: for Average Immobility Time: forced swim test, 60 minutes pre-test, last four minutes of test
rat = experiment: Test for possible sedative activity (motor activity) in the rat; settings: 200 mg/kg, up to fifty times the oral effective dose in the MES test
Experimental: (S)-1-Phenyl-2-(2-pyridyl)ethanamine was further tested for possible sedative activity in the rat. At doses up to fifty times the oral effective dose in the maximum electroshock seizure test (MES), (S)-1-phenyl-2-(2-pyridyl)ethanamine induced no changes in four parameters of motor activity, namely, distance travelled, ambulatory time, stereotyped time and resting time. The dose administered was 200 mg/kg.

male NMRI mice [2] = experiment: Small tube test in mice; settings: for Average Immobility Time: small tube test, 60 minutes pre-test, last four minutes of test; for Effect on immobility in the small tube test, in words: summary of Table 2, check for non-specific stimulant activity

Row | Molecule | Average Immobility Time (male NMRI mice [1]; dose 1 mg/kg i.p.) | Average Immobility Time (male NMRI mice [1]; dose 3 mg/kg i.p.) | Average Immobility Time (male NMRI mice [1]; dose 10 mg/kg i.p.) | Effect in the forced swim test (reduction in immobility time), in words (male NMRI mice [1]; summary of Table 1, dihydrochloride) | Changes in four parameters of motor activity (distance travelled, ambulatory time, stereotyped time and resting time) (rat) | Average Immobility Time (male NMRI mice [2]; dose 1 mg/kg i.p.) | Average Immobility Time (male NMRI mice [2]; dose 3 mg/kg i.p.) | Average Immobility Time (male NMRI mice [2]; dose 10 mg/kg i.p.) | Effect on immobility in the small tube test, in words (male NMRI mice [2]) | Effect in the forced swim test (reduction in immobility time), in words (male NMRI mice [1]; summary of Table 1) | Average Immobility Time (male NMRI mice [1]; dose 0.01 mg/kg i.p.) | Average Immobility Time (male NMRI mice [1]; dose 0.03 mg/kg i.p.) | Average Immobility Time (male NMRI mice [1]; dose 0.1 mg/kg i.p.) | Average Immobility Time (male NMRI mice [1]; dose 0.3 mg/kg i.p.) | Average Immobility Time (male NMRI mice [2]; dose 0.01 mg/kg i.p.) | Average Immobility Time (male NMRI mice [2]; dose 0.03 mg/kg i.p.) | Average Immobility Time (male NMRI mice [2]; dose 0.1 mg/kg i.p.) | Average Immobility Time (male NMRI mice [2]; dose 0.3 mg/kg i.p.)
1 | Cl.Cl.N[C@@H](Cc1ccccn1)c1ccccc1 [(S)-1-phenyl-2-(2-pyridyl)ethanamine dihydrochloride] | 158 s | 120* seconds | 145* seconds | positive effects; also recorded: have activity in the mouse forced swim test | no changes | 192 s | 210* seconds | 201 s | little effect |  |  |  |  |  |  |  |  | 
2 | CN(C)CCCN1c2ccccc2CCc2ccccc21 [Imipramine, imipramine] |  |  | 143* seconds |  |  |  |  | 202 s | little effect | very similar result to that observed with (S)-1-phenyl-2-(2-pyridyl)ethanamine |  |  |  |  |  |  |  | 
3 | (+)-MK 801 |  |  |  |  |  |  |  |  | reduced immobility | positive effects | 155 s | 164 s | 80* seconds | 10* seconds | 190 s | 173 s | 128* seconds | 84* seconds
